Our source for the Ki values is patent US9328138B2 (priority 2011, dated 2016).

For test [1], the target named is HCV NS3 protease genotype 3a (3A-1) (Hepatitis C virus genotype 3a, UniProt Q81258). In words: HCV NS3 protease time-resolved fluorescence (TRF) assay, genotype 3a. The test is classed as biochemical. Conditions: Ki 3a. The procedure, abridged: (§1)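 IC50 values derive from 4-parameter fitting of TRF signal after a 6 h room-temperature cleavage of 25 nM peptide substrate by NS3/NS4A that had been pre-incubated 10 min with compound.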

For test [2], the target named is T1, HCV genotype 1b (BK) NS3 modified enzyme with a R155K mutation (Hepatitis C virus genotype 1b, UniProt P26663, R1181K).
T1 construct: HCV genotype 1b (BK) NS3 modified enzyme
In words: HCV NS3 protease time-resolved fluorescence (TRF) assay, genotype 1b R155K. Type of test: biochemical. Conditions: Ki 1b R155K. The procedure, abridged:
as §1

Setting [3] is: genotype 1b (BK) NS3 R155K, single value.

pKi: −log10 of the molar value.

The term pKi denotes the negative decadic logarithm of the Ki, by convention in mol/L. High values mean a low Ki, low ones a high Ki. In the case of `C=C[C@@H]1C[C@]1(NC(=O)[C@@H]1C[C@@H]2CN1C(=O)[C@H](C1CCCC1)NC(=O)O[C@@H]1CCC[C@H]1CC/C=C/Cc1c(nc3ccccc3c1OCCCN1CCNC1=O)O2)C(=O)NS(=O)(=O)C1(C)CC1` [Example 48, (3aR,7S,10S,12R,21E,24aS)-7-cyclopentyl-N-[(1R,2S)-2-ethenyl-1-{[(1-methyl-cyclopropyl)sulfonyl]carbamoyl}cyclopropyl]-5,8-dioxo-19-[3-(2-oxoimidazolidin-1-yl)propoxy]-1,2,3,3a,5,6,7,8,11,12,20,23,24,24a-tetradecahydro-10H-9,12-methanocyclopenta [18,19][1,10,3,6]dioxadiazacyclononadecino [11,12-b]quinoline-10-carboxamide], the pKi in test [1] is 9.12; in test [2] (setting [3]), 9.92.
The matching figures for `C=C[C@@H]1C[C@]1(NC(=O)[C@@H]1C[C@@H]2CN1C(=O)[C@H](C(C)(C)C)NC(=O)O[C@@H]1C[C@H]1CCCCCc1c(nc3ccccc3c1OCCCN1CCCC1)O2)C(=O)NS(=O)(=O)C1(C)CC1` [Example 117, (1aR,5S,8S,10R,22aR)-5-tert-butyl-N-[(1R,2S)-2-ethenyl-1-{[(1-methylcyclopropyl)sulfonyl]carbamoyl}cyclopropyl]-3,6-dioxo-17-[3-(pyrrolidin-1-yl)propoxy]-1,1a,3,4,5,6,9,10,18,19,20,21,22,22a-tetradeca hydro-8H-7,10-methano cyclopropa[18,19][1,10,3,6] dioxadiazacyclononadecino [11,12-b]quinoline-8-carboxamide]: 9.03 and 10.10.
Turning to `C=C[C@@H]1C[C@]1(NC(=O)[C@@H]1C[C@@H]2CN1C(=O)[C@H](C1CCCC1)NC(=O)O[C@@H]1CCC[C@H]1CC/C=C/Cc1c(nc3ccccc3c1OCCC1OCCO1)O2)C(=O)NS(=O)(=O)C1(C)CC1` [Example 50, (3aR,7S,10S,12R,21E,24aS)-7-cyclopentyl-19-[2-(1,3-dioxolan-2-yl)ethoxy]-N-[(1R,2S)-2-ethenyl-1-{[(1-methylcyclopropyl)sulfonyl]carbamoyl}cyclopropyl]-5,8-dioxo-1,2,3,3a, 5,6,7,8,11,12,20,23,24,24a-tetradeca hydro-10H-9,12-methanocyclopenta[18,19][1,10,3,6]dioxadiazacyclononadecino[11,12-b] quinoline-10-carboxamide], the negative-log Ki (pKi) was 8.18 in test [1] and 9.64 in test [2] (setting [3]).
The matching figures for `C=C[C@@H]1C[C@]1(NC(=O)[C@@H]1C[C@@H]2CN1C(=O)[C@H](C(C)(C)C)NC(=O)O[C@@H]1CCC[C@H]1CCCCCc1c(nc3ccccc3c1OCCCN1CCOCC1)O2)C(=O)NS(=O)(=O)C1(COC)CC1` [Example 64, (3aR,7S,10S,12R, 24aR)-7-tert-butyl-N-[(1R,2S)-2-ethenyl-1-({[1-(methoxymethyl)cyclopropyl]sulfonyl}carbamoyl)cyclopropyl]-19-[3-(morpholin-4-yl)propoxy]-5,8-dioxo-1,2,3,3a,5,6,7,8, 11,12,20,21,22,23,24, 24a-hexadecahydro-10H-9,12-methanycyclopenta [18,19][1,10,3,6] dioxadiazacyclo-nonadecino [11,12-b]quinoline-10-carboxamide]: 8.26 and 9.37.
Consider `C=C[C@@H]1C[C@]1(NC(=O)[C@@H]1C[C@@H]2CN1C(=O)[C@H](C(C)(C)C)NC(=O)O[C@@H]1C[C@H]1CCCCCc1c(nc3ccccc3c1OCCCN(C)C)O2)C(=O)NS(=O)(=O)C1(C)CC1` [Example 114, (1aR,5S,8S,10R,22aR)-5-tert-butyl-17-[3-(dimethylamino)propoxy]-N-[(1R,2S)-2-ethenyl-1-{[(1-methylcyclopropyl)sulfonyl]carbamoyl}cyclopropyl]-3,6-dioxo-1,1a,3,4,5,6,9,10,18,19,20,21,22,22a-tetradecahydro-8H-7,10-methanocyclo propa[18,19][1,10,3,6]dioxadiazacyclo-nonadecino[11,12-b] quinoline-8-carboxamide], for which the pKi is 9.60 in test [1] and 10.29 in test [2] (setting [3]).
For `CC1(S(=O)(=O)NC(=O)[C@@]23C[C@H]2/C=C\CCCCC[C@@H]2NC(=O)O[C@@H]4C[C@H]4CCC/C=C/c4c(nc5ccccc5c4OCCN4CCCC4)O[C@@H]4C[C@@H](C(=O)N3)N(C4)C2=O)CC1` [Example 299, (1aR,5S,11Z,12aS,13aR,16S,19R,27E, 31aR)-N-[(1-methylcyclopropyl)sulfonyl]-3,15,33-trioxo-26-[2-(pyrrolidin-1-yl)ethoxy]-1,1a,3,4,5,6,7,8,9,10,12a,13,15,16,18,19,29, 30,31,31a-icosahydro-5,17:16,19-dimethanodicyclopropa[12,13:28,29][1,20,3, 14,17]dioxatriazacyclononacosino[21,22-b]quinoline-13a(14H)-carboxamide], in that order: 8.42 and 9.72.
For `C=C[C@@H]1C[C@]1(NC(=O)[C@@H]1C[C@@H]2CN1C(=O)[C@H](C(C)(C)C)NC(=O)O[C@@H]1C[C@H]1CCCCCc1c(nc3c(OC)cccc3c1OCCN1CCOCC1)O2)C(=O)NS(=O)(=O)C1(C)CC1` [Example 127, (1aR,5S,8S,10R,22aR)-5-tert-butyl-N-[(1R,2S)-2-ethenyl-1-{[(1-methylcyclopropyl)sulfonyl]carbamoyl}cyclopropyl]-13-methoxy-17-[2-(morpholin-4-yl)ethoxy]-3,6-dioxo-1,1a,3,4,5,6.9, 10,18,19,20,21,22,22a-tetradecahydro-8H-7,10-methanocyclopropa [18,19][1,10,3,6]dioxadiaza cyclononadecino[11,12-b]quinoline-8-carboxamide], in that order: 8.68 and 9.96.
Turning to `C=C[C@@H]1C[C@]1(NC(=O)[C@@H]1C[C@@H]2CN1C(=O)[C@H](C(C)(C)C)NC(=O)O[C@@H]1C[C@H]1CCCCCc1c(nc3ccccc3c1OCCN1CCCCC1)O2)C(=O)NS(=O)(=O)C1(C)CC1` [Example 134, (1aR,5S,8S,10R,22aR)-5-tert-butyl-N-[(1R,2S)-2-ethenyl-1-{[(1-methylcyclopropyl)sulfonyl]carbamoyl}cyclopropyl]-3,6-dioxo-17-[2-(piperidin-1-yl)ethoxy]-1,1a,3,4,5,6,9,10,18,19,20,21,22,22a-tetradeca hydro-8H-7,10-methano cyclopropa[18,19][1,10,3,6]dioxadiazacyclo nonadecino[11,12-b]quinoline-8-carboxamide], the pKi in test [1] was 8.21; in test [2] (setting [3]), 9.25.
On to `C=C[C@@H]1C[C@]1(NC(=O)[C@@H]1C[C@@H]2CN1C(=O)[C@H](C1CCCCC1)NC(=O)O[C@@H]1C[C@H]1CCCCCc1c(nc3ccccc3c1OCCCNC1CC(F)(F)C1)O2)C(=O)NS(=O)(=O)C1(C)CC1` [Example 243, (1aR,5S,8S,10R,22aR)-5-cyclohexyl-17-{3-[(3,3-difluorocyclobutyl)amino]propoxy}-N-[(1R,2S)-2-ethenyl-1-{[(1-methylcyclopropyl)sulfonyl]carbamoyl}cyclopropyl]-3,6-dioxo-1,1a,3,4,5,6,9,10,18,19,20,21,22,22a-tetradecahydro-8H-7,10-methanocyclopropa[18,19][1,10,3,6]dioxadiazacyclononadecino[11,12-b]quinoline-8-carboxamide], for which the negative-log Ki (pKi) was 8.48 in test [1], 10.48 in test [2] (first of two values printed in the cell (not explained)) and 9.56 in test [2] (second of two values printed in the cell (not explained)).
Take `C=C[C@@H]1C[C@]1(NC(=O)[C@@H]1C[C@@H]2CN1C(=O)[C@H](C(C)(C)C)NC(=O)O[C@@H]1C[C@H]1CCCCCc1c(nc3ccccc3c1O[C@@H]1C[C@H]3C[C@@H]1CN3CCOC)O2)C(=O)NS(=O)(=O)C1(C)CC1` [Example 231, (1aR,5S,8S,10R,22aR)-5-tert-butyl-N-[(1R,2S)-2-ethenyl-1-{[(1-methylcyclopropyl)sulfonyl]carbamoyl}cyclopropyl]-17-{[(1R,4R,5R)-2-(2-methoxyethyl)-2-azabicyclo[2.2.1]hept-5-yl]oxy}-3,6-dioxo-1,1a,3,4,5,6,9,10,18,19,20,21,22,22a-tetradecahydro-8H-7,10-methanocyclopropa[18,19][1,10,3,6] dioxadiazacyclononadecino[11,12-b]quinoline-8-carboxamide]: the pKi was 8.74 in test [1] and 9.89 in test [2] (setting [3]).
The matching figures for `C=C[C@@H]1C[C@]1(NC(=O)[C@@H]1C[C@@H]2CN1C(=O)[C@H](C(C)(C)C)NC(=O)O[C@@H]1C[C@H]1CCCCCc1c(nc3ccccc3c1OC1CCN(CC)CC1)O2)C(=O)NS(=O)(=O)C1(C)CC1` [Example 229, (1aR,5S,8S,10R,22aR)-5-tert-butyl-N-[(1R,2S)-2-ethenyl-1-{[(1-methylcyclopropyl)sulfonyl]carbamoyl}cyclopropyl]-17-[(1-ethylpiperidin-4-yl)oxy]-3,6-dioxo-1,1a,3,4,5,6,9,10,18,19,20,21,22,22a-tetradecahydro-8H-7,10-methanocyclopropa[18,19][1,10,3,6] dioxadiazacyclononadecino[11,12-b]quinoline-8-carboxamide]: 9.60 and 10.47.
For `C=C[C@@H]1C[C@]1(NC(=O)[C@@H]1C[C@@H]2CN1C(=O)[C@H](C(C)(C)C)NC(=O)O[C@@H]1C[C@H]1CCCCCc1c(nc3ccccc3c1OCCCN(CC(O)c1ccc(O)c(O)c1)C(C)C)O2)C(=O)NS(=O)(=O)C1(C)CC1` (stereo partly drawn) [Example 188, (1aR,5S,8S,10R,22aR)-5-tert-butyl-17-(3-{[2-(3,4-dihydroxyphenyl)-2-hydroxyethyl](propan-2-yl)amino}propoxy)-N-[(1R,2S)-2-ethenyl-1-{[(1-methylcyclopropyl)sulfonyl]carbamoyl}cyclopropyl]-3,6-dioxo-1,1a,3,4,5,6,9,10,18,19,20, 21,22,22a-tetradecahydro-8H-7,10-methanocyclopropa[18,19][1,10,3,6] dioxadiazacyclononadecino[11,12-b] quinoline-8-carboxamide], the pKi in test [1] is 9.07; in test [2] (setting [3]), 10.48.
